In patent publication US11358957B2, “Microbiocidal oxadiazole derivatives” (SYNGENTA PARTICIPATIONS AG, priority 2017, dated 2022):

What was measured:
[1] = system: Puccinia recondita f. Sp. Tritici; assay: Fungicidal activity against Puccinia recondita f. sp. tritici / wheat / leaf disc curative (brown rust); format: in vivo; settings: foliar, 24 h, 200 ppm in the applied formulation, wheat leaf segments cv. Kanzler, curative (applied 1 day after inoculation), compared to untreated, read-out: disease control
Method: Leaf disks or leaf segments of various plant species are cut from plants grown in a greenhouse. The cut leaf disks or segments are placed in multiwell plates (24-well format) onto water agar. The leaf disks are sprayed with a test solution before (preventative) or after (curative) inoculation. Compounds to be tested are prepared as DMSO solutions (max. 10 mg/mL) which are diluted to the appropriate concentration with 0.025% Tween20 just before spraying. The inoculated leaf disks or segments are incubated under defined conditions (temperature, relative humidity, light, etc.) according to the respective test system. A single evaluation of disease level is carried out 3 to 14 days after inoculation, depending on the pathosystem. Percent disease control relative to the untreated check leaf disks or segments is then calculated. Wheat leaf segments cv. Kanzler are placed on agar in multiwell plates (24-well format). The leaf segments are then inoculated with a spore suspension of the fungus. Plates were stored in darkness at 19C and 75% relative humidity. The formulated test compound diluted in water was applied 1 day after inoculation. The leaf segments were incubated at 19° C. and 75% relative humidity under a light regime of 12 hours light/12 hours darkness in a climate cabinet and the activity of a compound was assessed as percent disease control compared to untreated when an appropriate level of disease damage appears in untreated check leaf segments (6 to 8 days after application). The following compounds at 200 ppm in the applied formulation give at least 80% disease control in this test when compared to untreated control leaf disks under the same conditions, which show extensive disease development.

[2] = system: Glomerella lagenarium (Colletotrichum lagenarium); assay: Fungicidal activity against Glomerella lagenarium (Colletotrichum lagenarium) liquid culture / cucumber / preventative (anthracnose); format: cell-based; settings: Colletotrichum orbiculare; 20 ppm in the applied formulation; liquid culture (PDB), inhibition of growth measured photometrically 3 to 4 days after application; compared to untreated; read-out: disease control
Method: Mycelia fragments or conidia suspensions of a fungus prepared either freshly from liquid cultures of the fungus or from cryogenic storage, are directly mixed into nutrient broth. DMSO solutions of the test compound (max. 10 mg/mL) are diluted with 0.025% Tween20 by a factor of 50 and 10 μL of this solution is pipetted into a microtiter plate (96-well format). The nutrient broth containing the fungal spores/mycelia fragments is then added to give an end concentration of the tested compound. The test plates are incubated in the dark at 24° C. and 96% relative humidity. The inhibition of fungal growth is determined photometrically after 2 to 7 days, depending on the pathosystem, and percent antifungal activity relative to the untreated check is calculated. Conidia of the fungus from cryogenic storage are directly mixed into nutrient broth (PDB—potato dextrose broth). After placing a (DMSO) solution of test compound into a microtiter plate (96-well format), the nutrient broth containing the fungal spores is added. The test plates are incubated at 24° C. and the inhibition of growth is measured photometrically 3 to 4 days after application. The following compounds at 20 ppm in the applied formulation give at least 80% disease control in this test when compared to untreated control under the same conditions, which show extensive disease development.

[3] = system: Puccinia recondita f. Sp. Tritici; assay: Fungicidal activity against Puccinia recondita f. sp. tritici / wheat / leaf disc preventative (brown rust); format: in vivo; settings: foliar, 200 ppm in the applied formulation, wheat leaf segments cv. Kanzler, preventative (inoculated 1 day after application), compared to untreated, read-out: disease control
Method: Leaf disks or leaf segments of various plant species are cut from plants grown in a greenhouse. The cut leaf disks or segments are placed in multiwell plates (24-well format) onto water agar. The leaf disks are sprayed with a test solution before (preventative) or after (curative) inoculation. Compounds to be tested are prepared as DMSO solutions (max. 10 mg/mL) which are diluted to the appropriate concentration with 0.025% Tween20 just before spraying. The inoculated leaf disks or segments are incubated under defined conditions (temperature, relative humidity, light, etc.) according to the respective test system. A single evaluation of disease level is carried out 3 to 14 days after inoculation, depending on the pathosystem. Percent disease control relative to the untreated check leaf disks or segments is then calculated. Wheat leaf segments cv. Kanzler were placed on agar in multiwell plates (24-well format) and sprayed with the formulated test compound diluted in water. The leaf disks were inoculated with a spore suspension of the fungus 1 day after application. The inoculated leaf segments were incubated at 19° C. and 75% relative humidity (rh) under a light regime of 12 hours light/12 hours darkness in a climate cabinet and the activity of a compound was assessed as percent disease control compared to untreated when an appropriate level of disease damage appears in untreated check leaf segments (7 to 9 days after application). The following compounds at 200 ppm in the applied formulation give at least 80% disease control in this test when compared to untreated control leaf disks under the same conditions, which show extensive disease development.

CCNC(=O)c1ccn(Cc2ccc(-c3noc(C(F)(F)F)n3)s2)n1 [Compound 1.120, N-ethyl-1-[[5-[5-(trifluoromethyl)-1,2,4-oxadiazol-3-yl]-2-thienyl]methyl]pyrazole-3-carboxamide]
≥ 80%: pest or weed control at 200 ppm [1] | inhibition of growth at 20 ppm [2] | pest or weed control at 200 ppm [3]

CON(C)C(=O)c1ccnn1Cc1ccc(-c2noc(C(F)(F)F)n2)s1 [Compound 1.158, N-methoxy-N-methyl-2-[[5-[5-(trifluoromethyl)-1,2,4-oxadiazol-3-yl]-2-thienyl]methyl]pyrazole-3-carboxamide]
≥ 80%: pest or weed control at 200 ppm [1] | inhibition of growth at 20 ppm [2] | pest or weed control at 200 ppm [3]

O=C(NC1CC1)c1ccn(Cc2ccc(-c3noc(C(F)(F)F)n3)s2)n1 [Compound 1.126, N-cyclopropyl-1-[[5-[5-(trifluoromethyl)-1,2,4-oxadiazol-3-yl]-2-thienyl]methyl]pyrazole-3-carboxamide]
≥ 80%: pest or weed control at 200 ppm [1] | inhibition of growth at 20 ppm [2] | pest or weed control at 200 ppm [3]

CC(C)CNC(=O)c1cnn(Cc2ccc(-c3noc(C(F)(F)F)n3)s2)c1 [Compound 1.109, N-isobutyl-1-[[5-[5-(trifluoromethyl)-1,2,4-oxadiazol-3-yl]-2-thienyl]methyl]pyrazole-4-carboxamide]
≥ 80%: pest or weed control at 200 ppm [1] | inhibition of growth at 20 ppm [2] | pest or weed control at 200 ppm [3]

CCNC(=O)c1cnn(Cc2ccc(-c3noc(C(F)(F)F)n3)s2)c1 [Compound 1.106, N-ethyl-1-[[5-[5-(trifluoromethyl)-1,2,4-oxadiazol-3-yl]-2-thienyl]methyl]pyrazole-4-carboxamide]
≥ 80%: pest or weed control at 200 ppm [1] | inhibition of growth at 20 ppm [2] | pest or weed control at 200 ppm [3]

CC(c1ccc(-c2noc(C(F)(F)F)n2)s1)n1cc(C(=O)NCC(C)(C)C)cn1 (stereo not drawn) [Compound 1.66, N-(2,2-dimethylpropyl)-1-[1-[5-[5-(trifluoromethyl)-1,2,4-oxadiazol-3-yl]-2-thienyl]ethyl]pyrazole-4-carboxamide]
≥ 80%: pest or weed control at 200 ppm [1] | inhibition of growth at 20 ppm [2] | pest or weed control at 200 ppm [3]

O=C(Nc1ccccc1)c1ccn(Cc2ccc(-c3noc(C(F)(F)F)n3)s2)n1 [Compound 1.130, N-phenyl-1-[[5-[5-(trifluoromethyl)-1,2,4-oxadiazol-3-yl]-2-thienyl]methyl]pyrazole-3-carboxamide]
≥ 80%: pest or weed control at 200 ppm [1] | inhibition of growth at 20 ppm [2] | pest or weed control at 200 ppm [3]

N#Cc1cnn(Cc2ccc(-c3noc(C(F)(F)F)n3)s2)c1 [Compound 1.11, 1-[[5-[5-(trifluoromethyl)-1,2,4-oxadiazol-3-yl]-2-thienyl]methyl]pyrazole-4-carbonitrile]
≥ 80%: pest or weed control at 200 ppm [1] | inhibition of growth at 20 ppm [2] | pest or weed control at 200 ppm [3]

CC(C)(C)CNC(=O)c1ncn(Cc2ccc(-c3noc(C(F)(F)F)n3)s2)n1 [Compound 1.145, N-(2,2-dimethylpropyl)-1-[[5-[5-(trifluoromethyl)-1,2,4-oxadiazol-3-yl]-2-thienyl]methyl]-1,2,4-triazole-3-carboxamide]
≥ 80%: pest or weed control at 200 ppm [1] | inhibition of growth at 20 ppm [2] | pest or weed control at 200 ppm [3]

CCN(CC)C(=O)c1ccn(Cc2ccc(-c3noc(C(F)(F)F)n3)s2)n1 [Compound 1.128, N,N-diethyl-1-[[5-[5-(trifluoromethyl)-1,2,4-oxadiazol-3-yl]-2-thienyl]methyl]pyrazole-3-carboxamide]
≥ 80%: pest or weed control at 200 ppm [1] | inhibition of growth at 20 ppm [2] | pest or weed control at 200 ppm [3]

CC(c1ccc(-c2noc(C(F)(F)F)n2)s1)n1cc(C(=O)NC2CCC2)cn1 (stereo not drawn) [Compound 1.79, N-cyclobutyl-1-[1-[5-[5-(trifluoromethyl)-1,2,4-oxadiazol-3-yl]-2-thienyl]ethyl]pyrazole-4-carboxamide]
≥ 80%: pest or weed control at 200 ppm [1] | inhibition of growth at 20 ppm [2] | pest or weed control at 200 ppm [3]

CCN(CC)C(=O)c1ccnn1Cc1ccc(-c2noc(C(F)(F)F)n2)s1 [Compound 1.161, N,N-diethyl-2-[[5-[5-(trifluoromethyl)-1,2,4-oxadiazol-3-yl]-2-thienyl]methyl]pyrazole-3-carboxamide]
≥ 80%: pest or weed control at 200 ppm [1] | inhibition of growth at 20 ppm [2] | pest or weed control at 200 ppm [3]

O=C(NCc1ccco1)c1ncn(Cc2ccc(-c3noc(C(F)(F)F)n3)s2)n1 [Compound 1.96, N-(2-furylmethyl)-1-[[5-[5-(trifluoromethyl)-1,2,4-oxadiazol-3-yl]-2-thienyl]methyl]-1,2,4-triazole-3-carboxamide]
≥ 80%: pest or weed control at 200 ppm [1] | inhibition of growth at 20 ppm [2] | pest or weed control at 200 ppm [3]

O=C(NCc1ccco1)c1cnn(Cc2ccc(-c3noc(C(F)(F)F)n3)s2)c1 [Compound 1.129, N-(2-furylmethyl)-1-[[5-[5-(trifluoromethyl)-1,2,4-oxadiazol-3-yl]-2-thienyl]methyl]pyrazole-4-carboxamide]
≥ 80%: pest or weed control at 200 ppm [1] | inhibition of growth at 20 ppm [2] | pest or weed control at 200 ppm [3]

C#CCNC(=O)c1ccnn1Cc1ccc(-c2noc(C(F)(F)F)n2)s1 [Compound 1.168, N-prop-2-ynyl-2-[[5-[5-(trifluoromethyl)-1,2,4-oxadiazol-3-yl]-2-thienyl]methyl]pyrazole-3-carboxamide]
≥ 80%: pest or weed control at 200 ppm [1] | inhibition of growth at 20 ppm [2] | pest or weed control at 200 ppm [3]

CCN(C)C(=O)c1cnn(C(C)c2ccc(-c3noc(C(F)(F)F)n3)s2)c1 (stereo not drawn) [Compound 1.88, N-ethyl-N-methyl-1-[1-[5-[5-(trifluoromethyl)-1,2,4-oxadiazol-3-yl]-2-thienyl]ethyl]pyrazole-4-carboxamide]
≥ 80%: pest or weed control at 200 ppm [1] | inhibition of growth at 20 ppm [2] | pest or weed control at 200 ppm [3]

C=CCNC(=O)c1cnn(C(C)c2ccc(-c3noc(C(F)(F)F)n3)s2)c1 (stereo not drawn) [Compound 1.73, N-allyl-1-[1-[5-[5-(trifluoromethyl)-1,2,4-oxadiazol-3-yl]-2-thienyl]ethyl]pyrazole-4-carboxamide]
≥ 80%: pest or weed control at 200 ppm [1] | inhibition of growth at 20 ppm [2] | pest or weed control at 200 ppm [3]

Cc1cc(N)n(Cc2ccc(-c3noc(C(F)(F)F)n3)s2)n1 [Compound 1.16, 5-methyl-2-[[5-[5-(trifluoromethyl)-1,2,4-oxadiazol-3-yl]-2-thienyl]methyl]pyrazol-3-amine]
≥ 80%: pest or weed control at 200 ppm [1] | inhibition of growth at 20 ppm [2] | pest or weed control at 200 ppm [3]

CCCNC(=O)c1ccn(Cc2ccc(-c3noc(C(F)(F)F)n3)s2)n1 [Compound 1.137, N-propyl-1-[[5-[5-(trifluoromethyl)-1,2,4-oxadiazol-3-yl]-2-thienyl]methyl]pyrazole-3-carboxamide]
≥ 80%: pest or weed control at 200 ppm [1] | inhibition of growth at 20 ppm [2] | pest or weed control at 200 ppm [3]
